Source: US8349839B2, “Inhibitors of HIV replication” (Boehringer Ingelheim International GmbH, priority 2009, dated 2013)

What was measured:
[1] = biological target: HIV reverse transcriptase (Human immunodeficiency virus type 1 group M subtype B, UniProt P04585); experiment: HIV Reverse Transcriptase Assay (IC50); type: biochemical; conditions: assay of Example 67; 1 mM of ATP added to the reaction mixture
Method: (§1) Diluted solutions of stock solutions of compounds of Formula I in DMSO are prepared in assay buffer in Eppendorf tubes 16 h prior to their use in the biological assay, using a minimal supplementary volume of 75 μL of assay buffer in addition to the volume required in the assay. The samples are vortexed for 10 min at RT and incubated for 16 h at 4° C. The equilibrated solutions are centrifuged at 16 000 g for 5 min in a centrifuge equipped with an internal chiller, which is pre-equilibrated at 4° C., and the supernatant is collected. The portion of supernatant required for the serial dilutions in the biological assay is transferred to the compound dilution plate and a 75 μL portion of the remaining supernatant is transferred to a 1.4 mL tube (Micronic). A 25 μL volume of DMSO is promptly added and the sample is submitted for concentration determination by HPLC, along with the stock solution of the compound in DMSO as a standard for concentration determination analysis.
HIV Reverse Transcriptase Assay (IC50)
The assay used to measure inhibition of HIV reverse transcriptase is as described in WO 2006/034583, pages 52-53, incorporated herein by reference, except that 1 mM of ATP was added to the reaction mixture.

[2] = tested on: HIV-1 replication in C8166 LTRluc cells; experiment: C8166 HIV-1 Luciferase Assay (EC50); type: cell-based; conditions: Human immunodeficiency virus 1, 72 h; assay of Example 68; C8166 LTRluc cells infected with HIV-1 at moi 0.005, 3 days
Method: as §1
C8166 HIV-1 Luciferase Assay (EC50)
The assay used to measure inhibition of HIV replication is as described in WO 2004/050643, pages 73-75, incorporated herein by reference, with the following modifications:
Serial dilutions of HIV-1 inhibitors are prepared in complete media from DMSO stock solutions. Eleven serial dilutions of desired concentration are prepared in a 1 mL deep well titer plate (96 wells). The 12th well contains complete media with no inhibitor and serves as the positive control. All samples contain the same concentration of DMSO (<0.1% DMSO). Inhibitor is added, to triplicate wells, of a 96 well tissue culture treated clear view black microtiter plate (Corning Costar catalogue #3904). The total volume per well is 200 μL of media containing the cells and inhibitor. The last row is reserved for uninfected C8166 LTRluc cells to serve as the background blank control and the first row is media alone.
Count C8166 LTRluc cells and place in a minimal volume of complete RPMI 1640 in a tissue culture flask (ex. 30×10^6 cells in 10 mL media/25 cm^2 flask). Infect cells with HIV-1 at a moi of 0.005. Incubate cells for 1.5 h at 37° C. on a rotating rack in a 5% CO2 incubator. Resuspend cells in complete RPMI to give a final concentration of 25,000-cells/well. Add cells to wells of 96 well microtiter plate containing inhibitors. Add 25,000 uninfected C8166-LTRluc cells/well in 200 μL complete RPMI to last row for background control. Incubate cells at 37° C. in 5% CO2 incubator for 3 days.
50 μL Steady Glo (luciferase substrate T1/2=5 hours Promega catalogue # E2520) is added to each well of the 96 well plate. The relative light units (RLU) of luciferase are determined using a luminescence plate reader. The calculated % inhibition values are used to determine EC50, slope factor (n) and maximum inhibition (Imax).

Row | Compound | IC50 [1] [µM] | EC50 [2] [µM]
1 | O=c1nc(-c2ccccc2)c2oc3ccccc3c2n1CCN1CCCC1 [Compound 1001] | 2.35 | –
2 | CN1CCN(CC(=O)Nc2ccc(-c3nc(=O)n(C)c4c3oc3ccccc34)cc2)CC1 [Compound 1002] | 11 | 15
3 | COCCn1c(=O)nc(-c2ccc(NC(=O)CN(C)C)cc2)c2oc3ccccc3c21 [Compound 1004] | 1.15 | 3.6
4 | COCCn1c(=O)nc(-c2ccc(NC(=O)CN3CCOCC3)cc2)c2oc3ccccc3c21 [Compound 1005] | 0.215 | –
5 | CCNCC(=O)Nc1ccc(-c2nc(=O)n(CCOC)c3c2oc2ccccc23)cc1 [Compound 1009] | 0.073 | 0.675
6 | COCCn1c(=O)nc(-c2ccc(NC(=O)NCCN3CCCC3)cc2)c2oc3ccccc3c21 [Compound 1016] | 0.107 | 6.8
7 | COCCn1c(=O)nc(-c2ccc(OCCN(C)C)cc2)c2oc3ccccc3c21 [Compound 1036] | 0.633 | 14
8 | CCNCC(=O)Nc1ccc(-c2nc(=O)n(C)c3c2oc2ccccc23)cc1 [Compound 1051] | 0.52 | 0.98
9 | COCCn1c(=O)nc(-c2ccc(NC(=O)CN3CCCC3)c(OC)c2)c2oc3ccccc3c21 [Compound 1056] | 2.5 | –
10 | COCCn1c(=O)nc(-c2ccc(N(C)CCN(C)C)nc2)c2oc3ccccc3c21 [Compound 1070] | 0.31 | 1.2
11 | COCCn1c(=O)nc(-c2ccc(N3CCN(C(C)C)CC3)nc2)c2oc3ccccc3c21 [Compound 1073] | 0.107 | 0.72
12 | O=c1nc(-c2ccccc2)c2oc3ccc(Cl)cc3c2n1CCN1CCCC1 [Compound 2001] | 0.593 | 3.7
13 | O=c1nc(-c2ccccc2)c2oc3ccc(Cl)cc3c2n1CCN1CCC(F)(F)C1 [Compound 2009] | 0.323 | 2.9
14 | CCNCC(=O)Nc1ccc(-c2nc(=O)n(CCOC)c3c2oc2ccc(-c4cncs4)cc23)cc1 [Compound 2021] | 0.02 | 0.2
15 | CN1CCc2cc(-c3ccc4oc5c(-c6ccc(F)cc6)nc(=O)n(CCN6CCCC6C(N)=O)c5c4c3)ccc2C1 (centres unmarked) [Compound 2025] | 0.035 | 0.052
16 | CC(=O)N(C)C1CCN(CCn2c(=O)nc(-c3ccccc3)c3oc4ccc(Br)cc4c32)C1 (centres unmarked) [Compound 2038] | 0.25 | 2.9
17 | CCNCC(=O)Nc1ccc(-c2nc(=O)n(CCOC)c3c2oc2ccc(-c4ccc5c(c4)N(C)CCC5)cc23)cc1 [Compound 2039] | 0.024 | 0.44
18 | CCNCC(=O)Nc1ccc(-c2nc(=O)n(CCOC)c3c2oc2ccc(-c4cccc5c4CCN(C)C5)cc23)cc1 [Compound 2115] | 1.15 | –
19 | COCCn1c(=O)nc(-c2ccc(N)cc2)c2oc3ccc(Br)cc3c21 [Compound 2133] | 0.76 | 4.65

Row | Compound | IC50 [1] [µM] | EC50 [2] [µM]
20 | COCCn1c(=O)nc(-c2ccc(NS(C)(=O)=O)cc2)c2oc3ccc(-c4ccc(CN(C)C)cc4)cc3c21 [Compound 2194] | 0.395 | 1.5
21 | CN(C)Cc1ccc(-c2ccc3oc4c(-c5ccccc5)nc(=O)n(-c5ccccc5)c4c3c2)cc1 [Compound 2213] | 0.086 | 0.235
22 | CN1CCN(c2ccc(-c3nc(=O)n(CCN4CCCC4)c4c3oc3ccc(Cl)cc34)cn2)CC1 [Compound 2232] | 0.022 | 0.24
23 | CNC1CCN(c2ccc(-c3nc(=O)n(CCOC)c4c3oc3ccc(Cl)cc34)cn2)C1 (centres unmarked) [Compound 2254] | 0.04 | 0.21
24 | CN1CCN(c2ccc(-c3nc(=O)n(C)c4c3oc3ccc(Br)cc34)cn2)CC1 [Compound 2257] | 0.031 | 0.19
25 | COCCn1c(=O)nc(-c2ccc(N3CCN(C)CC3)nc2)c2oc3ccc(Cl)cc3c21 [Compound 2260] | 0.075 | 0.89
26 | CCNCc1nc2cc(-c3nc(=O)n(CCCOC)c4c3oc3ccc(Cl)cc34)ccc2n1C [Compound 2273] | 0.008 | 0.058
27 | CC(C)N1CCN(c2ccc(-c3nc(=O)n(CC(=O)N4CC[C@H](F)C4)c4c3oc3ccc(Cl)cc34)cn2)CC1 [Compound 2277] | 0.007 | 0.092
28 | CCCCCn1c(=O)nc(-c2ccc3c(c2)nc(C)n3C)c2oc3ccc(-c4cnn(C)c4)cc3c21 [Compound 2287] | 0.005 | 0.018
29 | CN(C)Cc1ccc(-c2ccc3oc4c(-c5ccccc5)nc(=O)n(CC(=O)NC5CC5)c4c3c2)cc1 [Compound 2310] | 1 | –
30 | CN(C)Cc1ccc(-c2ccc3oc4c(c3c2)N(CC2CCCO2)S(=O)(=O)N=C4c2ccccc2)cc1 (centres unmarked) [Compound 3003] | > 0.225 | 0.95
31 | COCCCN1c2c(oc3ccc(-c4ccc(CN(C)C)cc4)cc23)C(c2ccccc2)=NS1(=O)=O [Compound 3004] | > 0.205 | 0.52
32 | O=C(O)Cn1c2ccc(Cl)cc2c2c1c(-c1ccccc1)nc(=O)n2CCN1CCCC1 [Compound 4001] | 0.28 | 5.8
33 | COCCCN1CCN(c2ccc(-c3nc(=O)n(CCCOC)c4c3oc3ncccc34)cn2)CC1 [Compound 5001] | 0.06 | 0.59
34 | COCCCn1c(=O)nc(-c2ccc(N3CCC(NCC(F)F)CC3)nc2)c2oc3ncc(-c4cnn(C)c4)cc3c21 [Compound 5004] | 0.014 | –
35 | COCCCn1c(=O)nc(-c2ccc(N3CCN(C(C)C)CC3)nc2)c2oc3cnccc3c21 [Compound 5019] | 0.025 | 0.28
36 | CCCCCn1c(=O)nc(-c2ccc(N3CCN(C)CC3)nc2)c2oc3ncc(C#N)cc3c21 [Compound 5024] | 0.006 | 0.032
37 | COCCCn1c(=O)nc(-c2ccc(N3CCN(C)CC3)nc2)c2oc3ncc(-c4cncs4)cc3c21 [Compound 5028] | 0.0041 | 0.021
